# Literature values, collected in US20140271704A1, “METHODS OF PRODUCING NUTRITIONAL SUPPLEMENTS USING MUSHROOMS FROM THE SPECIES Poria cocos OR Flammulina velutipes” (JARROW FORMULAS, INC., priority 2013, published 2014).
# How the values were obtained:
# [1] = oral, animal
# homocysteine = conditions: human; compared with racemic mixtures of equal amounts of L- and D-isomer
SMILES,absorption from the intestinal tract [1],reduction of homocysteine versus racemic mixture (homocysteine)
"CN1c2c(nc(N)[nH]c2=O)NCC1CNc1ccc(C(=O)N[C@@H](CCC(=O)O)C(=O)O)cc1 (some centres unmarked) [5-MTHF, 5-methyltetrahydrofolate]",readily absorbed from the intestinal tract without degradation,–
"CN1c2c(nc(N)[nH]c2=O)NCC1CNc1ccc(C(=O)N[C@@H](CCC(=O)O)C(=O)O)cc1 (single isomer, unassigned) [L-isomer of 5-MTHF, 5-methyltetrahydrofolate]",–,superior to racemic mixtures
